In PubChem BioAssay AID328 (DTP/NCI, 2004):
Where “and” joins values, the source holds several entries; their conditions need not be identical. Equal entries are not always repeated. Toxic doses and inconclusive results are not listed.

Tested on: BDF1 mice, P388 leukemia ip, median survival T/C
Test: NCI In Vivo Anticancer Drug Screen. Data for tumor model P388 Leukemia (intraperitoneal) in B6D2F1 (BDF1) mice
Details: endpoint: median survival time, higher = longer survival
How it was run: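 T/C = treated-group survival ÷ vehicle-control survival; tumour transplanted into mice before dosing.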

[1] = dose: 12.5 mg/kg/injection, schedule: Q01DX009 (ip), vehicle: Klucel (hydroxypropylcellulose) (HPC)
[2] = dose: 25.0 mg/kg/injection, schedule: Q01DX009 (ip), vehicle: Klucel (hydroxypropylcellulose) (HPC)
[3] = dose: 50.0 mg/kg/injection, schedule: Q01DX009 (ip), vehicle: Klucel (hydroxypropylcellulose) (HPC)
[4] = dose: 50.0 mg/kg/injection, schedule: Q01DX009 (ip), vehicle: saline with Tween-80
[5] = dose: 100.0 mg/kg/injection, schedule: Q01DX009 (ip), vehicle: saline with Tween-80
[6] = dose: 200.0 mg/kg/injection, schedule: Q01DX009 (ip), vehicle: saline with Tween-80
[7] = dose: 400.0 mg/kg/injection, schedule: Q01DX009 (ip), vehicle: saline with Tween-80
[8] = dose: 100.0 mg/kg/injection, schedule: Q01DX009 (ip), vehicle: saline
[9] = dose: 200.0 mg/kg/injection, schedule: Q01DX009 (ip), vehicle: saline
[10] = dose: 400.0 mg/kg/injection, schedule: Q01DX009 (ip), vehicle: saline
[11] = dose: 100.0 mg/kg/injection, schedule: Q04DX003 (ip), vehicle: saline with Tween-80
[12] = dose: 200.0 mg/kg/injection, schedule: Q04DX003 (ip), vehicle: saline with Tween-80
[13] = dose: 400.0 mg/kg/injection, schedule: Q04DX003 (ip), vehicle: saline with Tween-80

## O=C(Cc1ccccc1)OCCc1ccccc1
[1]
  T/C: 109 % of control
[2]
  T/C: 109 % of control
[3]
  T/C: 95 % of control
dose: 100.0 mg/kg/injection, schedule: Q04DX003 (ip), vehicle: Klucel (hydroxypropylcellulose) (HPC)
  T/C: 109 % of control
dose: 200.0 mg/kg/injection, schedule: Q04DX003 (ip), vehicle: Klucel (hydroxypropylcellulose) (HPC)
  T/C: 100 % of control
dose: 400.0 mg/kg/injection, schedule: Q04DX003 (ip), vehicle: Klucel (hydroxypropylcellulose) (HPC)
  T/C: 100 % of control

## CC(=O)Oc1c(Br)cc(Br)cc1-c1ccccc1
[4]
  T/C: 92 % of control
[5]
  T/C: 92 % of control
[6]
  T/C: 92 % of control
[7]
  T/C: 90 % of control

## CCCCCCCCCCCCCCCCN(C)c1ccc(C=O)cc1
[8]
  T/C: 104 % of control and 110 % of control
dose: 100.0 mg/kg/injection, schedule: Q04DX003 (ip), vehicle: saline
  T/C: 118 % of control
[9]
  T/C: 100 % of control and 105 % of control
dose: 200.0 mg/kg/injection, schedule: Q04DX003 (ip), vehicle: saline
  T/C: 109 % of control
[10]
  T/C: 113 % of control
dose: 400.0 mg/kg/injection, schedule: Q04DX003 (ip), vehicle: saline
  T/C: 109 % of control

## O=C1c2ccccc2C(=O)c2c(NCCNCCO)ccc(NCCNCCO)c21
dose: 2.0 mg/kg/injection, schedule: Q01DX009 (ip), vehicle: water
  T/C: 163 % of control
dose: 3.12 mg/kg/injection, schedule: Q01DX009 (ip), vehicle: saline
  T/C: 262 % of control and 403 % of control and 239 % of control
dose: 4.0 mg/kg/injection, schedule: Q01DX009 (ip), vehicle: water
  T/C: 111 % of control
dose: 4.0 mg/kg/injection, schedule: Q04DX003 (ip), vehicle: saline with Tween-80
  T/C: 154 % of control
dose: 6.25 mg/kg/injection, schedule: Q01DX009 (ip), vehicle: saline
  T/C: 502 % of control and 202 % of control and 189 % of control
dose: 8.0 mg/kg/injection, schedule: Q01DX009 (ip), vehicle: water
  T/C: 96 % of control
dose: 8.0 mg/kg/injection, schedule: Q04DX003 (ip), vehicle: saline with Tween-80
  T/C: 165 % of control
dose: 12.5 mg/kg/injection, schedule: Q01DX009 (ip), vehicle: saline
  T/C: 503 % of control and 517 % of control
dose: 13.0 mg/kg/injection, schedule: Q04DX003 (ip), vehicle: saline + alcohol
  T/C: 222 % of control
dose: 16.0 mg/kg/injection, schedule: Q04DX003 (ip), vehicle: saline with Tween-80
  T/C: 165 % of control
dose: 21.6 mg/kg/injection, schedule: Q04DX003 (ip), vehicle: saline + alcohol
  T/C: 321 % of control
dose: 25.0 mg/kg/injection, schedule: Q01DX009 (ip), vehicle: saline
  T/C: 517 % of control
dose: 32.0 mg/kg/injection, schedule: Q04DX003 (ip), vehicle: saline with Tween-80
  T/C: 192 % of control
dose: 36.0 mg/kg/injection, schedule: Q04DX003 (ip), vehicle: saline + alcohol
  T/C: 311 % of control
dose: 50.0 mg/kg/injection, schedule: Q01DX009 (ip), vehicle: saline
  T/C: 74 % of control
dose: 60.0 mg/kg/injection, schedule: Q04DX003 (ip), vehicle: saline + alcohol
  T/C: 201 % of control
dose: 64.0 mg/kg/injection, schedule: Q04DX003 (ip), vehicle: saline with Tween-80
  T/C: 274 % of control

## Fc1ccc(C(Cl)Cl)cc1
[8]
  T/C: 104 % of control
[9]
  T/C: 109 % of control
[10]
  T/C: 118 % of control

## CCOC(=O)C1C2OC(=O)C(C(=O)C2N=Nc2ccc(-c3ccc(N=NC4C(=O)C5C(=O)OC4C(C(=O)OCC)C5C4CC=CCC4)cc3)cc2)C1C1CC=CCC1 (stereo not given)
[5]
  T/C: 109 % of control
[11]
  T/C: 110 % of control
[6]
  T/C: 100 % of control
[12]
  T/C: 105 % of control
[7]
  T/C: 109 % of control
[13]
  T/C: 115 % of control

## C/C(C/C(C)=N\NC(=O)CN)=N/NC(=O)CN
dose: 33.75 mg/kg/injection, schedule: Q01DX009 (ip), vehicle: saline with Tween-80
  T/C: 104 % of control
dose: 67.5 mg/kg/injection, schedule: Q01DX009 (ip), vehicle: saline with Tween-80
  T/C: 100 % of control
dose: 135.0 mg/kg/injection, schedule: Q01DX009 (ip), vehicle: saline with Tween-80
  T/C: 106 % of control

## CC[CH2][Sn]([CH2]CC)([CH2]CC)[O][Sn]([CH2]CC)([CH2]CC)[CH2]CC
dose: 0.25 mg/kg/injection, schedule: Q01DX009 (ip), vehicle: saline with Tween-80
  T/C: 90 % of control
dose: 0.25 mg/kg/injection, schedule: Q04DX003 (ip), vehicle: saline with Tween-80
  T/C: 100 % of control
dose: 0.5 mg/kg/injection, schedule: Q01DX009 (ip), vehicle: saline with Tween-80
  T/C: 95 % of control
dose: 0.5 mg/kg/injection, schedule: Q04DX003 (ip), vehicle: saline with Tween-80
  T/C: 104 % of control
dose: 1.0 mg/kg/injection, schedule: Q01DX009 (ip), vehicle: saline with Tween-80
  T/C: 100 % of control
dose: 1.0 mg/kg/injection, schedule: Q04DX003 (ip), vehicle: saline with Tween-80
  T/C: 100 % of control

## Cc1cc(=O)c(O)c(N(C)C)o1
[4]
  T/C: 95 % of control
[5]
  T/C: 106 % of control
[6]
  T/C: 102 % of control

## O=[N+]([O-])c1ccc(N/N=C(\COc2ccccc2)c2ccccc2)c([N+](=O)[O-])c1
dose: 6.25 mg/kg/injection, schedule: Q01DX001 (ip), vehicle: saline with Tween-80
  T/C: 95 % of control
dose: 12.5 mg/kg/injection, schedule: Q01DX001 (ip), vehicle: saline with Tween-80
  T/C: 100 % of control
dose: 25.0 mg/kg/injection, schedule: Q01DX001 (ip), vehicle: saline with Tween-80
  T/C: 104 % of control

## C1=C(c2ccccc2)OC(c2ccccc2)C1c1ccccc1 (stereo not given)
dose: 25.0 mg/kg/injection, schedule: Q01DX005 (ip), vehicle: saline with Tween-80
  T/C: 94 % of control
dose: 50.0 mg/kg/injection, schedule: Q01DX005 (ip), vehicle: saline with Tween-80
  T/C: 94 % of control

## CC(C)(C#N)N=NC(C)(C)C#N
[1]
  T/C: 95 % of control
[2]
  T/C: 90 % of control
[3]
  T/C: 90 % of control

## CN=C(c1ccc(NC(=O)c2ccc(C(=O)Nc3ccc(C(=NC)N(C)C)cc3)cc2)cc1)N(C)C
dose: 2.0 mg/kg/injection, schedule: Q01DX010 (ip), vehicle: water
  T/C: 110 % of control
dose: 4.0 mg/kg/injection, schedule: Q01DX010 (ip), vehicle: water
  T/C: 115 % of control

## Nc1cc2ccccc2c(O)c1O
dose: 75.0 mg/kg/injection, schedule: Q04DX003 (ip), vehicle: saline sonified
  T/C: 100 % of control
dose: 150.0 mg/kg/injection, schedule: Q04DX003 (ip), vehicle: saline sonified
  T/C: 111 % of control
dose: 300.0 mg/kg/injection, schedule: Q04DX003 (ip), vehicle: saline sonified
  T/C: 94 % of control

## S=c1cc(-c2ccccc2)ss1
[11]
  T/C: 110 % of control and 101 % of control
[12]
  T/C: 115 % of control and 101 % of control
[13]
  T/C: 108 % of control

## C[C@]12CCC(=O)C[C@@H]1CC[C@@H]1[C@@H]2CC[C@]2(C)[C@@H](OC(=O)N(CCCl)N=O)CC[C@@H]12
[8]
  T/C: 100 % of control

## CC(=O)OC1=CCC(C(C)(C)C)CC1 (stereo not given)
dose: 5.15 mg/kg/injection, schedule: Q04DX003 (ip), vehicle: saline
  T/C: 100 % of control
dose: 6.25 mg/kg/injection, schedule: Q01DX009 (ip), vehicle: Klucel (hydroxypropylcellulose) (HPC)
  T/C: 100 % of control
dose: 10.31 mg/kg/injection, schedule: Q04DX003 (ip), vehicle: saline
  T/C: 90 % of control
[1]
  T/C: 100 % of control
dose: 20.62 mg/kg/injection, schedule: Q04DX003 (ip), vehicle: saline
  T/C: 90 % of control
[2]
  T/C: 100 % of control
dose: 35.0 mg/kg/injection, schedule: Q01DX009 (ip), vehicle: Klucel (hydroxypropylcellulose) (HPC)
  T/C: 91 % of control and 100 % of control
dose: 41.25 mg/kg/injection, schedule: Q04DX003 (ip), vehicle: Klucel (hydroxypropylcellulose) (HPC)
  T/C: 87 % of control
dose: 55.0 mg/kg/injection, schedule: Q01DX009 (ip), vehicle: Klucel (hydroxypropylcellulose) (HPC)
  T/C: 100 % of control
dose: 80.0 mg/kg/injection, schedule: Q01DX009 (ip), vehicle: Klucel (hydroxypropylcellulose) (HPC)
  T/C: 87 % of control

## CCCN(CCC)CCC#N
dose: 50.0 mg/kg/injection, schedule: Q04DX003 (ip), vehicle: saline with Tween-80
  T/C: 104 % of control
[11]
  T/C: 100 % of control
[12]
  T/C: 90 % of control

## C[Si](C)(C)OC/C=C\CO[Si](C)(C)C
[8]
  T/C: 100 % of control
[9]
  T/C: 108 % of control
[10]
  T/C: 108 % of control

## O=C(NCc1cnccn1)c1ccccc1Cl
[11]
  T/C: 92 % of control
[12]
  T/C: 104 % of control
[13]
  T/C: 100 % of control
